This passage reports IC50 results from patent US20100099676A1 (SHIONOGI & CO., LTD., priority 2006, published 2010).

Common to all, as to assay: Enzyme inhibiting activity of MMPs, fluorogenic peptide substrate
What all share (assay type): biochemical

One experiment deals with T1, MMP-2 (Homo sapiens, UniProt P08253).
T1 construct: purchased Calbiochem (EMD/MERCK Biosciences)
T1 sequence (P08253 110-660): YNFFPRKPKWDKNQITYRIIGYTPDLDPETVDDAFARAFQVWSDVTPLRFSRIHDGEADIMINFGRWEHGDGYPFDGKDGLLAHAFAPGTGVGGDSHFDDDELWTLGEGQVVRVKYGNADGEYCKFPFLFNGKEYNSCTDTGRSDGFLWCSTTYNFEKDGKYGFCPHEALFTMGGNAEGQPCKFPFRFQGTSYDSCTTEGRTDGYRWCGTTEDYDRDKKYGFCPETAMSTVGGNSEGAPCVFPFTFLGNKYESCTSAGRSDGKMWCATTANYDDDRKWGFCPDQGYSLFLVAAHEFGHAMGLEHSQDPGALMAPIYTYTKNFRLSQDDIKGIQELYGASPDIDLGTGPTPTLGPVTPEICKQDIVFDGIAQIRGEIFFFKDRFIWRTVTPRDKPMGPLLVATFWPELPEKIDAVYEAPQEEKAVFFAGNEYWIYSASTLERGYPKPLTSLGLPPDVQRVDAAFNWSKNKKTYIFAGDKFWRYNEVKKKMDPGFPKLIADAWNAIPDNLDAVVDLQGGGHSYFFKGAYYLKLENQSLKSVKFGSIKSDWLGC
Particulars: substrate MOCAc-Pro-Leu-Gly-Leu-A2Pr(DNP)-Ala-Arg-NH2, fluorescent intensity. The essentials: (§1)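 Recombinant human enzymes with the fluorogenic substrate MOCAc-Pro-Leu-Gly-Leu-A2Pr(DNP)-Ala-Arg-NH2. Fluorescence was read for enzyme+substrate±inhibitor and substrate±inhibitor blanks.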

For a further experiment, the target named is T2, MMP-9 (Homo sapiens, UniProt P14780).
T2 construct: purchased Calbiochem (EMD/MERCK Biosciences)
T2 sequence (P14780 94-707): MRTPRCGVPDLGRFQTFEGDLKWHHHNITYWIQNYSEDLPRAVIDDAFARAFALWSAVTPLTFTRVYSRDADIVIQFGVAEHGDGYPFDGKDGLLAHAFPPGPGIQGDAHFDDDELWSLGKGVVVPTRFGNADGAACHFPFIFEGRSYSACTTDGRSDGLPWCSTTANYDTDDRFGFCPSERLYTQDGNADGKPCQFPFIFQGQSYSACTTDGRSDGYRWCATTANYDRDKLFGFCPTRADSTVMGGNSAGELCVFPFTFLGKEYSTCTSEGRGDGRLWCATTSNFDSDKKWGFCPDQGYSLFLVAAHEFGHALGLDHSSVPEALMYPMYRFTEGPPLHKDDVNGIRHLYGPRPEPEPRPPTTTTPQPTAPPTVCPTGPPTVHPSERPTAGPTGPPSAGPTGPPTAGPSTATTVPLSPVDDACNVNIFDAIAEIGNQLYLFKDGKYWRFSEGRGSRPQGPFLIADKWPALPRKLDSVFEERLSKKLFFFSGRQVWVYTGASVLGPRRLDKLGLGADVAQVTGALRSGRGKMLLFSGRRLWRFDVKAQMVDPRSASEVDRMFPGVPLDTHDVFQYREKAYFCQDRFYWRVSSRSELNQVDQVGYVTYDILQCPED
Particulars: substrate MOCAc-Pro-Leu-Gly-Leu-A2Pr(DNP)-Ala-Arg-NH2, fluorescent intensity. In a few lines: as §1

For another experiment, the target named is T3, MMP-13 (Homo sapiens, UniProt P45452).
T3 construct: purchased Calbiochem (EMD/MERCK Biosciences)
Particulars: APMA-activated proenzyme; substrate MOCAc-Pro-Leu-Gly-Leu-A2Pr(DNP)-Ala-Arg-NH2, fluorescent intensity; read-out: IC50 MMP-13. The essentials: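 Pro-MMP-13 was activated with 1 mM APMA at 37° C for 2 h in 50 mM Tris-HCl pH 7.6, 0.3 M NaCl, 10 mM CaCl2, 0.005% Brij35. Activity was read by fluorescence using MOCAc-Pro-Leu-Gly-Leu-A2Pr(DNP)-Ala-Arg-NH2 substrate, with enzyme and inhibitor blank corrections. IC50 is the concentration giving 50% inhibition.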

As usually defined, the IC50 is the point on the concentration scale where inhibition reaches its midpoint. As for `CC(C)[C@@H](NS(=O)(=O)N1CCN(c2ccc(C#Cc3cc(C(=O)NCc4ccccc4)c(=O)n(C)c3)cc2)CC1)C(=O)O` [III-30, (R)-2-{4-[4-(5-benzylcarbamoyl-1-methyl-6-oxo-1,6-dihydropyridin-3-ylethynyl)-phenyl]-piperazine-1-sulfonylamino}-3-methylbutanoic acid], the IC50 against MMP-2 is 1000 to 10000 nM; at MMP-9 it was > 10000 nM; on MMP-13, 22 nM.
For `CCOc1ccc(C#Cc2ccc(N3CCN(S(=O)(=O)N[C@@H](C(=O)O)C(C)C)CC3)cc2)cc1-c1ncc(CC)o1` [Compound V-26, (R)-2-(4-{4-[4-ethoxy-3-(5-ethyloxazol-2-yl)-phenylethynyl]-phenyl}-piperazine-1-sulfonylamino)-3-methylbutanoic acid], in that order: 1000 to 10000 nM, > 10000 nM and 24 nM.
In the case of `CC(C)[C@@H](NS(=O)(=O)N1CCN(c2ccc(C#Cc3ccnc(C(=O)NCc4ccc(F)c(Br)c4)c3)cc2)CC1)C(=O)O` [III-210, (R)-2-(4-{4-[2-(3-bromo4-fluorobenzylcarbamoyl)-pyridin-4-ylethynyl]-phenyl}-piperazine-1-sulfonylamino)-3-methylbutanoic acid], the IC50 was > 10000 nM against MMP-2, > 10000 nM on MMP-9 and 17 nM on MMP-13.
In the case of `Cc1ccc(CNC(=O)c2cc(C#Cc3ccc(N4CCN(S(=O)(=O)N[C@@H](C(=O)O)C(C)C)CC4)cc3)ccn2)cc1F` [III-230, (R)-2-(4-{4-[2-(3-fluoro-4-methylbenzylcarbamoyl)-pyridin-4-ylethynyl]-phenyl}-piperazine-1-sulfonylamino)-3-methylbutanoic acid], the IC50 was 1000 to 10000 nM against MMP-2, > 10000 nM against MMP-9 and 7 nM on MMP-13.
`CC(C)[C@@H](NS(=O)(=O)N1CCN(c2ccc(C#Cc3ccnc(C(=O)NCc4ccc5c(c4)OCCO5)c3)cc2)CC1)C(=O)O` [III-205, (R)-2-[4-(4-{2-[(2,3-dihydrbenzo[1,4]dioxin-6-ylmethyl)-carbamoyl]-pyridin-4-ylethynyl}-phenyl)-piperazine-1-sulfonylamino]-3-methylbutanoic acid]: the IC50 against MMP-2 is 1000 to 10000 nM; against MMP-9, > 10000 nM; on MMP-13 it was 4 nM.
For `C[C@@H](NS(=O)(=O)N1CCN(c2ccc(C#Cc3nc(-c4cccc(OCc5ccc(S(C)(=O)=O)cc5)c4)cs3)cc2)CC1)C(=O)O` [Compound V-20, (R)-2-[4-(4-{4-[3-(4-methanesulfonylbenzyloxy)-phenyl]-thiazol-2-ylethynyl}-phenyl)-piperazine-1-sulfonylamino]-proponic acid], in that order: 1000 to 10000 nM, > 10000 nM and 1 nM.
Taken in the same sequence, the figures for `CCCCC(=O)c1cn(C)c2ccc(C#Cc3ccc(N4CCN(S(=O)(=O)N[C@H](C)C(=O)O)CC4)cc3)cc12` [III-45, (R)-2-{4-[4-(1-methyl-3-pentanoyl-1H-indol-5-ylethynyl)-phenyl]-piperazine-1-sulfonylamino}-proponic acid] were > 10000 nM, > 10000 nM and 13 nM.
On to `CC(C)[C@@H](NS(=O)(=O)N1CCN(c2ccc(C#Cc3ccnc(C(=O)NCc4ccc(N5CCCC5=O)cc4)c3)cc2)CC1)C(=O)O` [III-37, (R)-3-methyl-2-[4-(4-{2-[4-(2-oxopyrrolidine-1-yl)-benzylcarbamoyl]-pyridin-4-ylethynyl}-phenyl)-piperazine-1-sulfonylamino]-butanoic acid], for which the IC50 is 100 to 1000 nM on MMP-2, > 10000 nM on MMP-9 and 1 nM on MMP-13.
As to `C[C@@H](NS(=O)(=O)N1CCN(c2ccc(C#Cc3nc(-c4cccc(OCc5ccccc5)c4)cs3)cc2)CC1)C(=O)O` [Compound V-11, (R)-2-(4-{4-[4-(3-benzyloxyphenyl)-thiazol-2-ylethynyl]-phenyl}-piperazine-1-sulfonylamino)-proponic acid], the IC50 was 1000 to 10000 nM at MMP-2, > 10000 nM against MMP-9 and 14 nM on MMP-13.
Taken in the same sequence, the figures for `CC(C)[C@@H](NS(=O)(=O)N1CCN(c2ccc(C#Cc3ccnc(C(=O)NCc4ccc(-n5cccc5)cc4)c3)cc2)CC1)C(=O)O` [III-218, (R)-3-methyl-2-(4-{4-[2-(4-pyrrol-1-ylbenzylcarbamoyl)-pyridin-4-ylethynyl]-phenyl}-piperazine-1-sulfonylamino)-butanoic acid] were > 10000 nM, > 10000 nM and 19 nM.
Taken in the same sequence, the figures for `CC(C)[C@@H](NS(=O)(=O)N1CCN(c2ccc(C#Cc3ccc4[nH]c(=O)n(Cc5ccc(Cl)cc5)c(=O)c4c3)cc2)CC1)C(=O)O` [III-6, (R)-2-(4-{4-[3-(4-chrolobenzyl)-2,4-dioxo-1,2,3,4-tetrahydroquinazolin-6-ylethynyl]-phenyl}-piperazine-1-sulfonylamino)-3-methylbutanoic acid] were > 10000 nM, > 10000 nM and 28 nM.
As to `CC(C)[C@@H](NS(=O)(=O)N1CCN(c2ccc(C#Cc3ccnc(C(=O)NCc4cc(Cl)cc(Cl)c4)c3)cc2)CC1)C(=O)O` [III-157, (R)-2-(4-{4-[2-(3,5-dichlorobenzylcarbamoyl)-pyridin-4-ylethynyl]-phenyl}-piperazine-1-sulfonylamino)-3-methylbutanoic acid], the IC50 on MMP-2 was > 10000 nM; at MMP-9, > 10000 nM; at MMP-13, 19 nM.
For the compound `COc1ccc(Cn2ccc3ccc(C#Cc4ccc(N5CCN(S(=O)(=O)N[C@@H](C(=O)O)C(C)C)CC5)cc4)cc3c2=O)cc1` [III-167, (R)-2-(4-{4-[2-(4-methoxybenzyl)-1-oxo-1,2-dihydroisoquinolin-7-ylethynyl]-phenyl}-piperazine-1-sulfonylamino)-3-methylbutanoic acid], the results for the IC50 against MMP-2, against MMP-9 and at MMP-13 were > 10000 nM, > 10000 nM and 14 nM, respectively.
Turning to `CC(C)Cc1coc(-c2cc(C#Cc3ccc(N4CCN(S(=O)(=O)N[C@@H](C(=O)O)C(C)C)CC4)cc3)ccn2)n1` [Compound V-8, (R)-2-(4-{4-[2-(4-isobutyloxazol-2-yl)-pyridin-4-ylethynyl]-phenyl}-piperazine-1-sulfonylamino)-3-methylbutanoic acid], the figures for the IC50 on MMP-2, against MMP-9 and at MMP-13 were 1000 to 10000 nM, > 10000 nM and 7 nM, respectively.
Taken in the same sequence, the figures for `CC(C)[C@@H](NS(=O)(=O)N1CCN(c2ccc(C#Cc3ccnc(C(=O)NCc4ccc(S(N)(=O)=O)cc4)c3)cc2)CC1)C(=O)O` [III-201, (R)-3-methyl-2-(4-{4-[2-(4-sulfamoylbenzylcarbamoyl)-pyridin-4-ylethynyl]-phenyl}-piperazine-1-sulfonylamino)-butanoic acid] were 100 to 1000 nM, > 10000 nM and 1 nM.
Taken in the same sequence, the figures for `COc1ccc(C#Cc2ccc(N3CCN(S(=O)(=O)N[C@H](C)C(=O)O)CC3)cc2)cc1-c1ncc(CC(=O)NCc2ccccc2)o1` [Compound V-12, (R)-2-[4-(4-{3-[5-(benzylcarbamoylmethyl)-oxazol-2-yl]-4-methoxyphenylethynyl}-phenyl)-piperazine-1-sulfonylamino]-proponic acid] were 1000 to 10000 nM, > 10000 nM and 4 nM.
